Measured values published in ChEMBL document CHEMBL5113418, “Discovery of precision targeting EZH2 degraders for triple-negative breast cancer” (Eur J Med Chem, 2022).
pIC50, pKd: −log10 of the molar value.

Columns and labels:
MDA-MB-231 = assay: Antiproliferative activity against human MDA-MB-231 cells assessed as cell growth inhibition incubated for 72 hrs by MTT assay; type: functional, cell-based; conditions: MDA-MB-231, 72 h
MDA-MB-468 = assay: Antiproliferative activity against human MDA-MB-468 cells assessed as cell growth inhibition incubated for 72 hrs by MTT assay; type: functional, cell-based; conditions: MDA-MB-468, 72 h
BT-549 = assay: Antiproliferative activity against human BT-549 cells assessed as cell growth inhibition incubated for 72 hrs by MTT assay; type: functional, cell-based; conditions: BT-549, 72 h
MCF7 = assay: Antiproliferative activity against human MCF7 cells assessed as cell growth inhibition incubated for 72 hrs by MTT assay; type: functional, cell-based; conditions: MCF7, 72 h
HL-60 = assay: Antiproliferative activity against human HL-60 cells assessed as cell growth inhibition incubated for 72 hrs by MTT assay; type: functional, cell-based; conditions: HL-60, 72 h
[1] = Antiproliferative activity against human MCF-10A cells assessed as cell growth inhibition incubated for 72 hrs by MTT assay; type: toxicity, cell-based
MV4-11 = assay: Antiproliferative activity against human MV4-11 cells assessed as cell growth inhibition incubated for 72 hrs by MTT assay; type: functional, cell-based; conditions: MV4-11, 72 h
[2] = Antiproliferative activity against human L02 cells assessed as cell growth inhibition incubated for 72 hrs by MTT assay; type: toxicity, cell-based
[3] = Antiproliferative activity against human HK-2 cells assessed as cell growth inhibition incubated for 72 hrs by MTT assay; type: toxicity, cell-based
Homo sapiens = species on record: Homo sapiens; assay: Binding affinity to recombinant PRC2 complex (unknown origin) assessed as association rate constant by surface plasmon resonance assay
[4] = Binding affinity to recombinant PRC2 complex (unknown origin) assessed as dissociation rate constant by surface plasmon resonance assay; design: species or system Homo sapiens
[5] = Binding affinity to recombinant PRC2 complex (unknown origin) assessed as Equilibrium dissociation constant by surface plasmon resonance assay; design: species or system Homo sapiens

Row | Compound | pIC50 (MDA-MB-231) | pIC50 (MDA-MB-468) | further results
1 | CCN(c1cc(-c2ccc(N3CCN(C(=O)CCCCCCCCc4cn(CCOCCOCCOCCOCCNc5cccc6c5C(=O)N(C5CCC(=O)NC5=O)C6=O)nn4)CC3)nc2)cc(C(=O)NCc2c(C)cc(C)[nH]c2=O)c1C)C1CCOCC1 (stereo not given) | 4.66 | 5.40 | –
2 | CC[C@H](C)n1cc(C)c2c(C(=O)NCc3c(C)cc(C)[nH]c3=O)cc(-c3ccc(N4CCN(C(=O)CCCCCCCCc5cn(CCOCCOCCOCCOCCOCCOCCNc6cccc7c6C(=O)N(C6CCC(=O)NC6=O)C7=O)nn5)CC4)nc3)cc21 (stereo not given in full) | 6.19 | 6.38 | pIC50 (BT-549): 6.26; pIC50 (MCF7): 4.66; pIC50 (HL-60): 5.78; IC50 at 72 h [1]: > 40 µM; pIC50 (MV4-11): 5.99; IC50 at 72 h [2]: > 40 µM; IC50 at 72 h [3]: > 40 µM; Ka (Homo sapiens): 2.6 10^6/Ms; koff [4]: 0.07172 s⁻¹; pKd [5]: 7.56
3 | Cc1cc(C)c(CNC(=O)c2cc(-c3ccc(N4CCN(CCNC(=O)CC56CC7CC(CC(C7)C5)C6)CC4)nc3)cc3c2cnn3C(C)C)c(=O)[nH]1 | < 4.40 | 5.47 | –
4 | Cc1cc(C)c(CNC(=O)c2cc(-c3ccc(N4CCN(C(=O)CCCCc5cn(CCOCCOCCOCCOCCOCCNc6cccc7c6C(=O)N(C6CCC(=O)NC6=O)C7=O)nn5)CC4)nc3)cc3c2cnn3C(C)C)c(=O)[nH]1 (stereo not given) | 4.52 | 4.65 | –
5 | Cc1cc(C)c(CNC(=O)c2cc(-c3ccc(N4CCN(CCCCc5cn(CCOCCOCCOCCOCCOCCNc6cccc7c6C(=O)N(C6CCC(=O)NC6=O)C7=O)nn5)CC4)nc3)cc3c2cnn3C(C)C)c(=O)[nH]1 (stereo not given) | 5.30 | 5.54 | –
6 | Cc1cc(C)c(CNC(=O)c2cc(-c3ccc(N4CCN(CCCCCCc5cn(CCOCCOCCOCCOCCOCCNc6cccc7c6C(=O)N(C6CCC(=O)NC6=O)C7=O)nn5)CC4)nc3)cc3c2cnn3C(C)C)c(=O)[nH]1 (stereo not given) | 5.77 | 5.94 | –
7 | CCCc1cc(C)[nH]c(=O)c1CNC(=O)c1cc(-c2ccc(N3CCN(C(C)C)CC3)nc2)cc2c1cnn2C(C)C | 4.83 | 5.12 | –
8 | Cc1cc(C)c(CNC(=O)c2cc(-c3ccc(N4CCN(C(=O)CCCCCn5cc(CCCCCCCCC(=O)N[C@@H](C(=O)N6C[C@H](O)C[C@H]6C(=O)NCc6ccc(-c7scnc7C)cc6)C(C)(C)C)nn5)CC4)nc3)cc3c2cnn3C(C)C)c(=O)[nH]1 | 4.79 | 5.12 | –
9 | Cc1cc(C)c(CNC(=O)c2cc(-c3ccc(N4CCN(C(=O)CCCCCCCCc5cn(CCOCCOCCOCCOCCOCCOCCOCCNc6cccc7c6C(=O)N(C6CCC(=O)NC6=O)C7=O)nn5)CC4)nc3)cc3c2cnn3C(C)C)c(=O)[nH]1 (stereo not given) | 5.79 | 6.00 | –
10 | CCN(c1cc(-c2ccc(N3CCN(C(=O)CCCCCCCCc4cn(CCOCCOCCOCCOCCOCCNc5cccc6c5C(=O)N(C5CCC(=O)NC5=O)C6=O)nn4)CC3)nc2)cc(C(=O)NCc2c(C)cc(C)[nH]c2=O)c1C)C1CCOCC1 (stereo not given) | 5.96 | 6.15 | –
11 | Cc1cc(C)c(CNC(=O)c2cc(-c3ccc(N4CCN(C(=O)CCCc5cn(CCOCCOCCOCCOCCOCCNc6cccc7c6C(=O)N(C6CCC(=O)NC6=O)C7=O)nn5)CC4)nc3)cc3c2cnn3C(C)C)c(=O)[nH]1 (stereo not given) | < 4.40 | 4.47 | –
12 | Cc1cc(C)c(CNC(=O)c2cc(-c3ccc(N4CCN(C(=O)CCCCCCCCc5cn(CCOCCOCCOCCNc6cccc7c6C(=O)N(C6CCC(=O)NC6=O)C7=O)nn5)CC4)nc3)cc3c2cnn3C(C)C)c(=O)[nH]1 (stereo not given) | < 4.40 | 4.63 | –
13 | Cc1cc(C)c(CNC(=O)c2cc(-c3ccc(N4CCN(C(=O)CCCCC(=O)N[C@H](C(=O)N5C[C@H](O)C[C@H]5C(=O)NCc5ccc(-c6scnc6C)cc5)C(C)(C)C)CC4)nc3)cc3c2cnn3C(C)C)c(=O)[nH]1 | < 4.40 | < 4.40 | –
14 | CC[C@H](C)n1cc(C)c2c(C(=O)NCc3c(C)cc(C)[nH]c3=O)cc(-c3ccc(N4CCN(C(=O)CCCCCCCCc5cn(CCOCCOCCOCCOCCNc6cccc7c6C(=O)N(C6CCC(=O)NC6=O)C7=O)nn5)CC4)nc3)cc21 (stereo not given in full) | 4.61 | 5.38 | –
15 | CC[C@H](C)n1cc(C)c2c(C(=O)NCc3c(C)cc(C)[nH]c3=O)cc(-c3ccc(N4CCN(C(=O)CCCCCCCCc5cn(CCOCCOCCOCCOCCOCCNc6cccc7c6C(=O)N(C6CCC(=O)NC6=O)C7=O)nn5)CC4)nc3)cc21 (stereo not given in full) | 4.95 | 5.89 | –
16 | Cc1cc(C)c(CNC(=O)c2cc(-c3ccc(N4CCN(C(=O)CCCCCCCCc5cn(CCOCCOCCNc6cccc7c6C(=O)N(C6CCC(=O)NC6=O)C7=O)nn5)CC4)nc3)cc3c2cnn3C(C)C)c(=O)[nH]1 (stereo not given) | < 4.40 | < 4.40 | –
17 | Cc1cc(C)c(CNC(=O)c2cc(-c3ccc(N4CCN(C(=O)CCCCCn5cc(CCCCCC(=O)N[C@@H](C(=O)N6C[C@H](O)C[C@H]6C(=O)NCc6ccc(-c7scnc7C)cc6)C(C)(C)C)nn5)CC4)nc3)cc3c2cnn3C(C)C)c(=O)[nH]1 | 4.58 | 4.84 | –
18 | Cc1cc(C)c(CNC(=O)c2cc(-c3ccc(N4CCN(C(=O)CCc5cn(CCOCCOCCOCCOCCOCCNc6cccc7c6C(=O)N(C6CCC(=O)NC6=O)C7=O)nn5)CC4)nc3)cc3c2cnn3C(C)C)c(=O)[nH]1 (stereo not given) | < 4.40 | < 4.40 | –
19 | Cc1cc(C)c(CNC(=O)c2cc(-c3ccc(N4CCN(C(=O)Cn5cc(CCCC(=O)N[C@@H](C(=O)N6C[C@H](O)C[C@H]6C(=O)NCc6ccc(-c7scnc7C)cc6)C(C)(C)C)nn5)CC4)nc3)cc3c2cnn3C(C)C)c(=O)[nH]1 | < 4.40 | < 4.40 | –
20 | Cc1cc(C)c(CNC(=O)c2cc(-c3ccc(N4CCN(C(=O)CCCCn5cc(CCCCC(=O)N[C@@H](C(=O)N6C[C@H](O)C[C@H]6C(=O)NCc6ccc(-c7scnc7C)cc6)C(C)(C)C)nn5)CC4)nc3)cc3c2cnn3C(C)C)c(=O)[nH]1 | < 4.40 | < 4.40 | –
21 | CCN(c1cc(-c2ccc(N3CCN(C(=O)CCCCCCCCc4cn(CCOCCOCCOCCOCCOCCOCCNc5cccc6c5C(=O)N(C5CCC(=O)NC5=O)C6=O)nn4)CC3)nc2)cc(C(=O)NCc2c(C)cc(C)[nH]c2=O)c1C)C1CCOCC1 (stereo not given) | 5.89 | 5.97 | –
22 | Cc1cc(C)c(CNC(=O)c2cc(-c3ccc(N4CCN(C(=O)Cn5cc(CCC(=O)N[C@@H](C(=O)N6C[C@H](O)C[C@H]6C(=O)NCc6ccc(-c7scnc7C)cc6)C(C)(C)C)nn5)CC4)nc3)cc3c2cnn3C(C)C)c(=O)[nH]1 | < 4.40 | < 4.40 | –
23 | Cc1cc(C)c(CNC(=O)c2cc(-c3ccc(N4CCN(C(=O)CCCCCCCCc5cn(CCOCCOCCOCCOCCNc6cccc7c6C(=O)N(C6CCC(=O)NC6=O)C7=O)nn5)CC4)nc3)cc3c2cnn3C(C)C)c(=O)[nH]1 (stereo not given) | 4.72 | 5.69 | –
24 | Cc1cc(C)c(CNC(=O)c2cc(-c3ccc(N4CCN(C(=O)CCCCCCCCc5cn(CCOCCOCCOCCOCCOCCNc6cccc7c6C(=O)N(C6CCC(=O)NC6=O)C7=O)nn5)CC4)nc3)cc3c2cnn3C(C)C)c(=O)[nH]1 (stereo not given) | 5.92 | 6.05 | –
25 | Cc1cc(C)c(CNC(=O)c2cc(-c3ccc(N4CCN(C(=O)CCCCCc5cn(CCOCCOCCOCCOCCOCCNc6cccc7c6C(=O)N(C6CCC(=O)NC6=O)C7=O)nn5)CC4)nc3)cc3c2cnn3C(C)C)c(=O)[nH]1 (stereo not given) | 4.79 | 4.97 | –
26 | Cc1cc(C)c(CNC(=O)c2cc(-c3ccc(N4CCN(C(=O)Cn5cc(CCCCC(=O)N[C@@H](C(=O)N6C[C@H](O)C[C@H]6C(=O)NCc6ccc(-c7scnc7C)cc6)C(C)(C)C)nn5)CC4)nc3)cc3c2cnn3C(C)C)c(=O)[nH]1 | < 4.40 | < 4.40 | –
27 | Cc1cc(C)c(CNC(=O)c2cc(-c3ccc(N4CCN(C(=O)CCCCCn5cc(CCCCC(=O)N[C@@H](C(=O)N6C[C@H](O)C[C@H]6C(=O)NCc6ccc(-c7scnc7C)cc6)C(C)(C)C)nn5)CC4)nc3)cc3c2cnn3C(C)C)c(=O)[nH]1 | 4.45 | 4.63 | –
28 | Cc1cc(C)c(CNC(=O)c2cc(-c3ccc(N4CCNCC4)nc3)cc3c2cnn3C(C)C)c(=O)[nH]1 | < 4.40 | < 4.40 | –
29 | Cc1cc(C)c(CNC(=O)c2cc(-c3ccc(N4CCN(C(=O)CCCCCCC(=O)N[C@H](C(=O)N5C[C@H](O)C[C@H]5C(=O)NCc5ccc(-c6scnc6C)cc5)C(C)(C)C)CC4)nc3)cc3c2cnn3C(C)C)c(=O)[nH]1 | 4.60 | 5.08 | –
30 | Cc1cc(C)c(CNC(=O)c2cc(-c3ccc(N4CCN(C(=O)CCCCCCCC(=O)N[C@H](C(=O)N5C[C@H](O)C[C@H]5C(=O)NCc5ccc(-c6scnc6C)cc5)C(C)(C)C)CC4)nc3)cc3c2cnn3C(C)C)c(=O)[nH]1 | 5.29 | 5.51 | –
